Experimental data published in patent US8440199B2, “Methods for mobilizing mesenchymal stem cells in a patient” (Imperial Innovations Limited, priority 2007, dated 2013).

Key:
CXCR4 = test: Flow cytometry of CXCR4 expression on bone marrow HPCs and EPCs; type: in vivo, mice; details: treated 4 days
Protocol: Bone marrow was aspirated on day 5 and harvested cells were used to determine a, SDF-1α levels in bone marrow supernatant as determined by ELISA; b, % of bone marrow Lin^− Sca-1^+ cells expressing CXCR4; and c, % of bone marrow CD34^+ VEGFR2^+ cells expressing CXCR4. Harvested cells were also utilized in the following chemotaxis assays: d, number of HPCs; and e, EPCs undergoing chemotaxis towards 30 nM SDF-1α. Cells taken from bone marrow of mice treated with G-CSF (closed bars) or vehicle (PBS, open bars). f, number of HPCs; and g, EPCs undergoing chemotaxis towards 30 nM SDF-1α.
(§1) For flow cytometric analysis, cells were re-suspended in FACS buffer. To identify neutrophils in the bone marrow, surface expression of the granulocyte marker Ly-6G/Ly6C (Gr-1) was determined. Neutrophils were identified as Gr-1^high positive cells with a characteristic high side scatter profile. HPCs residing in the BM were selected as being negative for lineage (Lin^−) markers: CD3e, CD11b, CD45R, Ly-76, and Gr-1 and positive for Sca-1 (Lin^− Sca-1^+ cells) (Gerber et al., 2002; Uchida, et al., 1997). EPCs residing in the BM were selected as being positive for both CD34 and VEGFR2 (CD34^+ VEGFR2^+ cells) (Asahara et al., 1997; Yoon et al., 2005). Furthermore, neutrophils were stained for the surface expression of CXCR2, whilst Lin^− Sca-1^+ cells and CD34^+ VEGFR2^+ cells were stained for the cell surface expression of CXCR4. Samples were then washed and then quantified on a FACSAria cell sorter (BD Biosciences, Oxford, United Kingdom) and analysed using FACSDiva software.

[1] = system: haematopoietic progenitor cells (HPC); test: Example 1: HPC mobilisation, hind limb bone marrow perfusion and circulating blood, CFU-HPC assay; type: in vivo, mice; details: G-CSF or VEGF 2.5 μg on 4 consecutive days, then AMD3100 (0.1 mM infusion or 5 mg/kg i.p.); perfusate and blood, FIGS. 1-4
Protocol: Assay was performed in duplicate Mobilised cells were maintained in semi-solid methylcellulose cultures for 11 days before quantification of the number of CFU-HPCs.

EPCs = test: CFU-EPC bone marrow frequency; type: in vivo, mice; details: treated over 4 days, compared to controls, FIG. 22b
SPCs = test: In situ perfusion of mouse hind limb, CFU-SPC in perfusate; type: in vivo, mice; details: for SPC mobilization from the bone marrow: FIG. 21d
Protocol: a, overview of procedures set up for identifying the direct mobilization of progenitor cells from the femoral bone marrow. […] 24 hours after the last injection, mice underwent perfusion of the right hind limb. CXCR4 antagonist (AMD3100 0.1 mM, closed bars) or vehicle (PBS, open bars) were then infused directly into the femoral artery for 10 minutes. The hind limb was then perfused for a further 50 minutes to allow collection of b, CFU-HPC; c, CFU-EPC; or d, CFU-SPC; via the femoral vein. CFU-HPC, CFU-EPC, and CFU-SPC are shown as total number of colonies collected in the perfusate. n=5-8 mice per group. Data: means±s.e.m. *: P<0.05, **: P<0.01, ***: P<0.001 between selected groups.
(§2) 24 hours after the last injection, mice were administered a CXCR4 antagonist (AMD3100, 5 mg/kg i.p), KC (30 μg/kg i.v.) or vehicle and blood was collected via cardiac puncture 60 minutes later for enumeration of circulating leukocyte, HPC, EPC, and stromal progenitor cell levels.
On day 5 following pre-treatment of growth factors, mice were anaesthetized and the femoral artery and vein exposed. The hind limb was isolated by occlusion of the external iliac artery, superficial epigastric and muscular branch. Polyethylene cannulae (Portex, London, UK) were immediately inserted into the femoral artery and vein as previously described (Martin et al., 2003; 2006; Wengner et al., 2008). Perfusion buffer was infused via the arterial cannula and removed from the venous cannula using a Minipuls peristaltic pump (Anachem, Luton, UK). The hind limb was perfused for an initial 2 minutes to remove remaining blood from the vasculature and then perfused for a further 60 min with vehicle alone or the CXCR4 antagonist (AMD3100, 0.1 mM), infused over the first 10 minutes using an infusion/withdrawal pump (Harvard Instruments, U.K.).
(§3) The perfusate was centrifuged and re-suspended in DMEM+20% FBS. In some experiments citrated blood was obtained via cardiac bleed and lysed for red blood cells. Bone marrow and perfusate cytospins, and blood smears were stained using DiffQuik for the enumeration of mononuclear cells, eosinophils, and neutrophils. Bone marrow, perfusate and lysed blood were then used for assays outlined below to enumerate HPCs (CFU-HPC), EPCs (CFU-EPC), SPCs (CFU-F).
5×10^5 cells were added to Mesencult media including supplements (Stemcell Technologies). Dishes were incubated for 7 days before media was changed, and then incubated for a further 14 days before the enumeration of SPC colonies (CFU-F).
The total number of colony forming units mobilized was calculated according to the number of colonies per plate×by the total number of leukocytes mobilized/number of cells seeded.

CXCR2 = test: Flow cytometry of CXCR2 expression on bone marrow neutrophils; type: in vivo; details: VEGF-treated mice, FIG. 24d
Protocol: as §1

[2] = system: mesenchymal stem cells (MSC); test: Example 1: MSC mobilisation, hind limb bone marrow perfusion and circulating blood, CFU-MSC assay; type: in vivo, mice; details: perfusate and blood, FIGS. 9-12
Protocol: 4×10^5 cells were added to 3 ml Mesencult media including supplements (05501 and 05502 Stemcell Technologies). Assay was performed in duplicate.

[3] = Total number of cells in the femurs; type: in vivo; details: treated over 4 days; not significantly different compared to control mice
Protocol: 24 hours after the last injection, bone marrow was aspirated for the enumeration of a, CFU-HPC bone marrow frequency; b, CFU-EPC bone marrow frequency; and c, CFU-SPC bone marrow frequency.
as §2, §3

## VEGF
CXCR4; CD34+ VEGFR2+ bone marrow cells, FIG. 23c
  CXCR4 expression on EPCs: did not alter the expression of CXCR4 on either HPCs or EPCs
CXCR4; Lin- Sca-1+ bone marrow cells, FIG. 23b
  CXCR4 expression on HPCs: did not alter the expression of CXCR4 on either HPCs or EPCs
[1]
  HPC mobilization: inhibits the capacity for AMD3100 to mobilize HPCs
EPCs
  frequency/number of EPCs in the bone marrow: no difference was observed
SPCs; agent alone (CXCR4 antagonist 0.1 mM infused 10 min; G-CSF or VEGF pre-treatment 4 days)
  SPC mobilization from the bone marrow: HPCs and SPCs were not mobilized
SPCs; growth factor (50 nM) infused acutely, alone or in combination with CXCR4 antagonist, FIG. 31c
  SPC mobilization, acute administration: neither growth factor, when administered acutely or in combination with the CXCR4 antagonist led to mobilization of SPCs
SPCs; growth factor pre-treatment 4 days, then CXCR4 antagonist infused
  SPC mobilization from the bone marrow: SPCs were mobilized
CXCR2
  proportion of Gr-1+ bone marrow neutrophils expressing CXCR2: did not affect either the proportion of Gr-1^+ bone marrow neutrophils expressing CXCR2
[2]; G-CSF or VEGF 2.5 μg on 4 consecutive days, then AMD3100
  MSC mobilization: mobilizes MSC into the blood
[2]; agent alone
  MSC mobilization: does not mobilize MSCs
[3]
  total number of cells in the femurs: 1.07±0.11×10^7 cells/femur
